Measured values: PMC6760264 (Journal of medicinal chemistry, 2019)

Biological target: T1, NTMT1 (Homo sapiens, UniProt Q9BV86)
T1 sequence (Q9BV86 1-223): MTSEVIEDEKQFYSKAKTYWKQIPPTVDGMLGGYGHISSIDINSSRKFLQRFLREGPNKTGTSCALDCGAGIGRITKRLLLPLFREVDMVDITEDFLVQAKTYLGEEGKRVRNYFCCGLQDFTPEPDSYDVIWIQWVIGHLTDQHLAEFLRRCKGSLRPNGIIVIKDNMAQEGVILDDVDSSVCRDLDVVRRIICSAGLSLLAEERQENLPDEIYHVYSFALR
Assay: SAHH-coupled fluorescence assay of NTMT1 inhibition
Assay type: biochemical
Details: at 10 μM

inhibition against NTMT1: did not show any significant inhibition
Compound: Nc1ncnc2c1ncn2[C@@H]1O[C@H](CN(CCCN2CCC[C@H]2C(=O)O)CC[C@H](N)C(=O)O)[C@@H](O)[C@H]1O [Compound 14, (3-(((S)-3-Amino-3-carboxypropyl)(((2R,3S,4R,5S)-5-(6-amino-9H-purin-9-yl)-3,4-dihydroxytetrahydrofuran-2-yl)-methyl)amino)propyl)-l-proline]
